Legend:
Format in all cases: cell-based, human
[1] = tested on: BT474 cells; experiment: SLC6A14 and ER mRNA by RT-PCR after estradiol/antiestrogen treatment; details: 24 h
Method: (§1) FIGS. 2A-2C. Regulation of SLC6A14 expression by estrogen/ER. In FIG. 2A, ZR75.1 and BT474 cells were cultured for 5-6 passages in control medium (10% fetal bovine serum with phenol red) and phenol red-free medium (10% or 5% charcoal-stripped fetal bovine serum), and then the levels of ERa mRNA and SLC6A14 mRNA were determined by RT-PCR (P1, P2, P3, P4, P5, and P6 refer to passage numbers). In FIG. 2B, BT474 cells were treated with estradiol (10 nM) in the presence or absence of antiestrogens (1 μM) for 24 h, and then used for RT-PCR analysis of SLC6A14 mRNA and ERa mRNA (E2, estradiol; TAM, tamoxifen; 4-OH TAM, 4-hydroxytamoxifen; ICI 182780, FULVESTRANT™). […] Following the treatment, the reporter activity was measured. […]
(§2) Analysis of SLC6A14 as an estrogen/ER target. The influence of estrogen on SLC6A14 expression was assessed in ER-positive breast cancer cells (ZR75.1 and BT474) by culturing them for several passages in the absence of phenol red, and then monitoring the levels of SLC6A14 mRNA. […] Luciferase activity was measured in cell lysates using Luciferase Assay Reagent (Promega). β-galactosidase activity in the same cell lysates was used for normalization of the promoter activity for differences in transfection efficiency.

[2] = tested on: SLC6A14 promoter in BT474 cells; experiment: SLC6A14-promoter luciferase reporter assay; details: BT474, estradiol 10 nM, normalized with β-galactosidase activity
Method: as §1, §2

[3] = tested on: MCF7 cells; experiment: SLC6A14 mRNA by RT-PCR in phenol red-free medium with or without estradiol; details: estradiol 10 nM, 24 h, versus absence of estradiol
Method: FIG. 11. Estrogen-dependent suppression of the efficacy of α-MT to induce ASNS and CHOP expression in MCF7 cells. MCF7 cells were cultured in a phenol red-free medium in the absence or presence of estradiol (E2, 10 nM) for 24 h and then treated without or with α-MT (2.5 mM, 24 h). The cells were then used for analysis of SLC6A14, asparagine synthetase (ASNS), and CHOP mRNA levels by RT-PCR. Hypoxanthine/guanine phosphoribosyltransferase-1 (HPRT1) mRNA levels were used as an internal control.
RT-PCR. Total RNA was isolated using TRIZOL™ (Invitrogen). 2 μg of RNA was reverse transcribed using the GeneAmp PCR System (Applied Biosystems, Branchburg, N.J.). PCR reaction was performed under optimal conditions specific for each of the primer pairs. GAPDH (glyceraldehyde-3-phosphate dehydrogenase) or HPRT1 (hypoxanthine/guanine phosphoribosyl transferase-1) were used as internal controls. PCR products were size-fractionated on agarose gel, stained with ethidium bromide and imaged using Alpha Imager (Santa Clara, Calif.). Densitometry was performed on PCR bands and normalized to the internal control. Normalized values were used to compare mRNA levels of target genes. Primers used for PCR were as follows.

SMILES: C[C@]12CC[C@@H]3c4ccc(O)cc4CC[C@H]3[C@@H]1CC[C@@H]2O [estradiol]
- SLC6A14 mRNA levels ([1]; BT474, estradiol 10 nM): increased
- expression of ER ([1]; BT474, estradiol): did not have any noticeable effect
- enhancement of SLC6A14-promoter (luciferase) activity [2]: 6 fold
- expression of SLC6A14 [3]: higher
